Patent US20230287044A1, “NOVEL ANTIBACTERIAL PEPTIDE AND USE THEREOF” (priority 2020, published 2023)
Values after ≈ are worked out from the molar mass of the structure shown. Like-named read-outs stand apart in the source and are kept apart here. Square brackets hold non-standard residues; d marks the D form. Ends that are not written are not given here. Peptide text beside a SMILES is read from it. * marks the point of attachment. NH(β-GlcNAc) = CC(=O)N[C@@H]1[C@@H](O)[C@H](O)[C@@H](CO)O[C@H]1N*; dTrp(5-OMe) = COc1ccc2[nH]cc(C[C@@H](N)C(=O)O)c2c1

How the values were obtained:
[1] = Solubility of antibacterial peptides in solution; format: physicochemical
[2] = system: 30 species of Acinetobacter baumannii (A. baumannii); format: cell-based; settings: against 30 species of Acinetobacter baumannii
Method: In addition, the results obtained by measuring the minimum inhibitory concentrations of KSH29, KSH42 and KSH43 against 30 species of Acinetobacter baumannii (A. baumannii) are shown in Table 4 below.
The minimum inhibitory concentrations (MIC) against the 30 species of Acinetobacter baumannii were measured in the following manner.
The strain 1605 was purchased from ATCC (American Type Culture Collection, USA). In addition, the strain 40203 was purchased from the Korean Culture Center of Microorganisms.
The COL^R refers to resistance to colistin, the TGC^R refers to resistance to tigecycline, and the TGC^I refers to tigecycline intermediate strains.

[3] = system: MRPA (P. aeruginosa) CCARM 2180; format: cell-based, Pseudomonas aeruginosa; settings: CCARM 2180, 18 h
Procedure, shortened: (§1)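 Mid-log cultures grown in CAMHB and diluted to 1× 10^6 cfu/ml in PBS were mixed with an equal volume of peptide in CAMHB (80 µM to 0.63 µM twofold dilutions). MIC taken as the mean of three independent experiments.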

[4] = system: MRAB (A. baumannii) ATCC BAA 1605; format: cell-based, Acinetobacter baumannii; settings: ATCC BAA 1605, 18 h
Procedure, shortened: as §1

[5] = system: MRSA (S. aureus) KCCM 40510; format: cell-based, Staphylococcus aureus; settings: KCCM 40510, 18 h
Procedure, shortened: as §1

[6] = system: VRE (E. faecalis) ATCC 51575; format: cell-based, Enterococcus faecalis; settings: ATCC 51575, 18 h
Procedure, shortened: as §1

| Compound | MIC MRPA (P. aeruginosa) CCARM 2180 [3] | MIC MRAB (A. baumannii) ATCC BAA 1605 [4] | MIC MRSA (S. aureus) KCCM 40510 [5] | MIC VRE (E. faecalis) ATCC 51575 [6] | also measured |
| --- | --- | --- | --- | --- | --- |
| CC(C)[C@@H](NC(=O)[C@H](N)Cc1c[nH]c2ccccc12)C(=O)N[C@@H](C(=O)N[C@H](Cc1c[nH]c2ccccc12)C(=O)N[C@@H](C(=O)N[C@@H](C(=O)N[C@H](Cc1c[nH]c2ccccc12)C(=O)N[C@H](CCCNC(=N)N)C(=O)N[C@H](CCCNC(=N)N)C(=O)N[C@H](CCCNC(=N)N)C(N)=O)C(C)C)C(C)C)C(C)C [KSH42, wvvwvvwrrr] (H-[dW][dV][dV][dW][dV][dV][dW][dR][dR][dR]-NH2; N-terminus assumed) | – | – | – | – | solubility at 12 h ([1]; aqueous buffer): ≥ 100 µM; solubility at 12 h ([1]; plasma or biological fluid): 100 µM (≈ 144 µg/mL); solubility at 12 h ([1]; water): > 2000 µM; MIC50 [2]: 1.25 µM (≈ 1.8 µg/mL); MIC90 [2]: 1.25 µM (≈ 1.8 µg/mL) |
| CN[C@H](CC(C)C)C(=O)N[C@H]1C(=O)N[C@@H](CC(N)=O)C(=O)N[C@H]2C(=O)N[C@H]3C(=O)N[C@H](C(=O)N[C@H](C(=O)O)c4cc(O)cc(O)c4-c4cc3ccc4O)[C@H](O)c3ccc(c(Cl)c3)Oc3cc2cc(c3O[C@@H]2O[C@H](CO)[C@@H](O)[C@H](O)[C@H]2O[C@H]2C[C@](C)(N)[C@H](O)[C@H](C)O2)Oc2ccc(cc2Cl)[C@H]1O [Vancomycin, reference compound] | – | – | – | – | solubility at 12 h ([1]; aqueous buffer, PBS, peptide 25 to 200 µM, 12 hours at room temperature, read-out: Solubility in solution PBS): > 200 µM; solubility at 12 h ([1]; plasma or biological fluid, CAMHB, peptide 25 to 200 µM, 12 hours at room temperature, read-out: Solubility in solution CAMHB): > 200 µM; solubility at 12 h ([1]; water, H2O, observed for 12 hours at room temperature, read-out: Solubility in solution H2O): > 2000 µM |
| CC(C)[C@@H](NC(=O)[C@H](N)Cc1c[nH]c2ccccc12)C(=O)N[C@@H](C(=O)N[C@H](Cc1c[nH]c2ccccc12)C(=O)N[C@@H](C(=O)N[C@@H](C(=O)N[C@H](Cc1c[nH]c2ccccc12)C(=O)N[C@H](CCCCN)C(=O)N[C@H](CCCCN)C(=O)N[C@H](CCCCN)C(N)=O)C(C)C)C(C)C)C(C)C [KSH67, wvvwvvwkkk] (H-[dW][dV][dV][dW][dV][dV][dW][dK][dK][dK]-NH2; N-terminus assumed) | 5 µM (≈ 6.78 µg/mL) | 1.25 µM (≈ 1.7 µg/mL) | 0.63 µM (≈ 0.855 µg/mL) | 0.63 µM (≈ 0.855 µg/mL) | – |
| CC[C@@H](C)[C@@H](NC(=O)[C@@H](Cc1c[nH]c2ccccc12)NC(=O)[C@@H](C)NC(=O)[C@@H](C)NC(=O)[C@H](N)Cc1c[nH]c2ccccc12)C(=O)NCC(=O)N[C@H](CC(C)C)C(=O)N[C@H](CCCNC(=N)N)C(=O)N[C@H](CCCNC(=N)N)C(N)=O [KSH78, waawiglrr] (H-[dW][dA][dA][dW][dI]G[dL][dR][dR]-NH2; N-terminus assumed) | >10 µM | 5 µM (≈ 5.64 µg/mL) | >10 µM | >10 µM | – |
| CC[C@@H](C)[C@@H](NC(=O)[C@@H](Cc1c[nH]c2ccccc12)NC(=O)[C@H](NC(=O)[C@@H](CC(C)C)NC(=O)[C@H](N)Cc1c[nH]c2ccccc12)[C@H](C)CC)C(=O)NCC(=O)N[C@H](CC(C)C)C(=O)N[C@H](CCCNC(=N)N)C(=O)N[C@H](CCCCN)C(=O)N[C@H](CCCCN)C(=O)N[C@H](CCCNC(=N)N)C(N)=O [KSH I, wliwiglrkk r] (H-[dW][dL][dI][dW][dI]G[dL][dR][dK][dK][dR]-NH2; N-terminus assumed) | 10 µM (≈ 14.7 µg/mL) | 1.25 µM (≈ 1.83 µg/mL) | 2.5 µM (≈ 3.67 µg/mL) | 2.5 µM (≈ 3.67 µg/mL) | – |
| CC[C@@H](C)[C@@H](NC(=O)[C@@H](Cc1c[nH]c2ccccc12)NC(=O)[C@@H](CCCNC(=N)N)NC(=O)[C@@H](CCCNC(=N)N)NC(=O)[C@H](N)CCCNC(=N)N)C(=O)N[C@H](Cc1c[nH]c2ccccc12)C(=O)N[C@@H](C(=O)N[C@H](CC(C)C)C(=O)N[C@H](Cc1c[nH]c2ccccc12)C(=O)N[C@H](CCCCN)C(=O)N[C@@H](CC(=O)N[C@@H]1O[C@H](CO)[C@@H](O)[C@H](O)[C@H]1NC(C)=O)C(N)=O)C(C)C [KSH48, rrrwiwvlwkN] (H-[dR][dR][dR][dW][dI][dW][dV][dL][dW][dK]D(NH(β-GlcNAc))-NH2; N-terminus assumed) | 2.5 µM (≈ 4.54 µg/mL) | 0.63 µM (≈ 1.14 µg/mL) | 2.5 µM (≈ 4.54 µg/mL) | 2.5 µM (≈ 4.54 µg/mL) | – |
| CC(C)[C@@H](NC(=O)[C@@H](Cc1c[nH]c2ccccc12)NC(=O)[C@@H](CCCNC(=N)N)NC(=O)[C@@H](CCCNC(=N)N)NC(=O)[C@H](N)CCCNC(=N)N)C(=O)N[C@H](Cc1c[nH]c2ccccc12)C(=O)N[C@@H](C(=O)N[C@@H](C(=O)N[C@@H](C(=O)N[C@H](Cc1c[nH]c2ccccc12)C(N)=O)C(C)C)C(C)C)C(C)C [KSH82, rrrwvwvvvw] (H-[dR][dR][dR][dW][dV][dW][dV][dV][dV][dW]-NH2; N-terminus assumed) | 10 µM (≈ 14.4 µg/mL) | 10 µM (≈ 14.4 µg/mL) | 1.25 µM (≈ 1.8 µg/mL) | 1.25 µM (≈ 1.8 µg/mL) | – |
| CC[C@@H](C)[C@@H](NC(=O)[C@@H](Cc1c[nH]c2ccccc12)NC(=O)[C@@H](C)NC(=O)[C@@H](C)NC(=O)[C@H](N)Cc1c[nH]c2ccccc12)C(=O)NCC(=O)N[C@H](CC(C)C)C(=O)N[C@H](CCCNC(=N)N)C(=O)N[C@H](CCCCN)C(=O)N[C@H](CCCCN)C(=O)N[C@H](CCCCN)C(N)=O [KSH75, waawiglrkkk] (H-[dW][dA][dA][dW][dI]G[dL][dR][dK][dK][dK]-NH2; N-terminus assumed) | >10 µM | 2.5 µM (≈ 3.39 µg/mL) | >10 µM | >10 µM | – |
| CC[C@@H](C)[C@@H](NC(=O)[C@@H](Cc1c[nH]c2ccccc12)NC(=O)[C@@H](CC(C)C)NC(=O)[C@@H](CC(C)C)NC(=O)[C@H](N)Cc1c[nH]c2ccc(OC)cc12)C(=O)NCC(=O)N[C@H](CC(C)C)C(=O)N[C@H](CCCNC(=N)N)C(=O)N[C@H](CCCCN)C(=O)N[C@H](CCCCN)C(=O)N[C@H](CCCNC(=N)N)C(N)=O [KSH15, wMllwiglrkkr] (H-[dTrp(5-OMe)][dL][dL][dW][dI]G[dL][dR][dK][dK][dR]-NH2; N-terminus assumed) | 10 µM (≈ 15 µg/mL) | 1.25 µM (≈ 1.87 µg/mL) | 1.25 µM (≈ 1.87 µg/mL) | 2.5 µM (≈ 3.74 µg/mL) | – |
| CC(C)[C@@H](NC(=O)[C@@H](Cc1c[nH]c2ccccc12)NC(=O)CNC(=O)[C@@H](CCCNC(=N)N)NC(=O)[C@@H](CCCNC(=N)N)NC(=O)[C@H](N)CCCNC(=N)N)C(=O)N[C@H](Cc1c[nH]c2ccccc12)C(=O)N[C@@H](C(=O)N[C@@H](C(=O)N[C@H](Cc1c[nH]c2ccccc12)C(=O)N[C@H](CCCCN)C(N)=O)C(C)C)C(C)C [KSH90, rrrgwvwvvwk] (H-[dR][dR][dR]G[dW][dV][dW][dV][dV][dW][dK]-NH2; N-terminus assumed) | 5 µM (≈ 7.63 µg/mL) | 5 µM (≈ 7.63 µg/mL) | 1.25 µM (≈ 1.91 µg/mL) | 1.25 µM (≈ 1.91 µg/mL) | – |
| CC[C@@H](C)[C@@H](NC(=O)[C@@H](Cc1c[nH]c2ccccc12)NC(=O)[C@@H](C)NC(=O)[C@@H](C)NC(=O)[C@H](N)Cc1c[nH]c2ccccc12)C(=O)NCC(=O)N[C@H](CC(C)C)C(=O)N[C@H](CCCNC(=N)N)C(=O)N[C@H](CCCNC(=N)N)C(=O)N[C@H](CCCCN)C(=O)N[C@H](CCCCN)C(N)=O [KSH76, waawiglrrkk] (H-[dW][dA][dA][dW][dI]G[dL][dR][dR][dK][dK]-NH2; N-terminus assumed) | >10 µM | 1.25~2.5 µM | >10 µM | >10 µM | – |

Continued, in another order:

| MIC MRPA (P. aeruginosa) CCARM 2180 [3] | MIC MRAB (A. baumannii) ATCC BAA 1605 [4] | MIC MRSA (S. aureus) KCCM 40510 [5] | MIC VRE (E. faecalis) ATCC 51575 [6] | Compound | also measured |
| --- | --- | --- | --- | --- | --- |
| 40 µM | 2.5 µM | 10 µM | 10 µM | WLWVWVRKKR-NH2 [LSH5] | – |
| 20 µM | 2.5 µM | 2.5 µM | 2.5 µM | WVLWVWLRKKR-NH2 [LSH1] | – |
| >40 µM | 2.5 µM | >40 µM | 10 µM | VWVWVWVRKKR-NH2 [LSH99] | – |
| 40 µM | 2.5 µM | 10 µM | 10 µM | WVVWVYVRKKR-NH2 [LSH6] | – |
| 20 µM | 1.25 µM | 25 µM | 5 µM | WLLWVYVRKKR-NH2 [XSH2] | – |
